The values that follow come from patent USRE38132E1, “Phenylpyrrolidines, phenylimidazolidines,3-phenyl-1,3-oxizolidines and 3-phenyl-1,3-thiazolidines and their use in the treatment of inflammatory disease” (Boehringer Ingelheim Pharmaceuticals, Inc., priority 1997, dated 2003).

In general, IC50 refers to the midpoint of a concentration-inhibition curve.

Holding throughout (assay type): cell-based, human
Assay [1] deals with LFA-1 dependent aggregation of JY cells. As to the kind of experiment: JY cell homotypic aggregation assay (PMA-stimulated). Conditions: Homo sapiens. The method in brief:
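JY cells (2·10^5 cells/well) in RPMI 1640 with 10% FCS incubated with test compound and […]; cells settle spontaneously and aggregation is scored at various time points. Values are concentrations (μM) giving 50% inhibition of binding.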

The test system of assay [2] is cell bound form of LFA-1 (CD18, CD11a) with ICAM-1, SKW3 cells. Kind of assay: Inhibition of SKW3 cell binding to ICAM-1 (PMA-stimulated). The following applies: Homo sapiens, SKW3, values marked c: no inhibition observed up to highest dose; read-out: Assay to Detect SKW3 Cells Binding to ICAM IC50. The method in brief: (§1)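 Plates coated with sICAM-1 (40 μg/mL) or fibronectin (100 μg/mL) for 1 h; SKW3 cells in RPMI/15% FBS activated with PMA (50 μg/mL final) added with compound, 2 h at 37° C. Unbound cells washed off; value is concentration (μM) giving 50% binding inhibition.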

Assay [3] relates to cell bound fibronectin receptor (VLA4) with fibronectin, SKW3 cells. Kind of assay: Inhibition of SKW3 cell binding to fibronectin (selectivity counter-assay). Put shortly: as §1

`C[C@]1(Cc2ccc(Br)cc2)NC(=O)N(c2cc(Cl)cc(Cl)c2)C1=O` [Example 29]: the IC50 in assay [1] was 0.1 µM; in assay [2] it was 8 µM. In addition, in assay [3] (values marked c: no inhibition observed up to highest dose), the “Assay to Detect SKW3 Cells Binding to FIBRONECTIN IC50” value is “No inh^c”.
Turning to `CC(=O)N1C(=O)N(c2cc(Cl)cc(Cl)c2)C(=O)[C@@]1(C)Cc1ccc(Br)cc1` [Example 102], the IC50 is 1.3 µM in assay [1]; 25 to 50 µM in assay [2]; more than 200 µM in assay [3] (Homo sapiens, SKW3, values marked c: no inhibition observed up to highest dose, read-out: Assay to Detect SKW3 Cells Binding to FIBRONECTIN IC50).
